The text below walks through data of patent publication US10464922B2, “Metalloenzyme inhibitor compounds” (NQP 1598 LTD., priority 2015, dated 2019).

≈ marks a conversion by molar mass, not a printed value. Where only a bound is given, the exact number is not on record here.

Experiment [1] deals with A. fumigatus. The experiment can be described thus: A. fumigatus MIC at 100% growth inhibition (CLSI M38-A2). To be noted: 100% growth inhibition, range tested 8-0.0078 μg/mL, values given as ranges; for MIC: Aspergillus fumigatus, read-out: Aspergillus fumigatus MIC. The class given is cell-based, Aspergillus fumigatus. Here is the method: A. fumigatus MICs were determined at 100% growth inhibition following CLSI guidelines at a concentration range of 8-0.0078 μg/mL (CLSI M38-A2).

The test system of experiment [2] is C. albicans (ATCC 90028). The experiment can be described thus: Minimum inhibitory concentration, in vitro broth microdilution assay (CLSI M27-A2). To be noted: ATCC 90028, about 50% growth reduction, 2 days at 36° C., range tested 8-0.0078 μg/mL, values given as ranges; for MIC: Candida albicans, ATCC90028, 48 h, read-out: Candida albicans MIC. The class given is cell-based, Candida albicans. Here is the method:
The antifungal potency of the test compounds was measured using the in vitro broth microdilution assay under assay conditions described by the Clinical and Laboratory Standards Institute (CLSI M27-A2). The test compounds were dissolved in 100% DMSO, suspended completely by sonication or vortexing, diluted by 2-fold serial titrations in the same vehicle, for a total of 11 test concentrations. A 4 μL aliquot of each dilution was added to 196 μL of RPMI-1640+MOPS medium seeded with the C. albicans (ATCC 90028) suspension in wells of a 96 well plate (fungal cell count: 1×10^3 to 1×10^4 colony forming units per mL). The final volume was 200 μL in each well and the final DMSO concentration was 2 percent. The inoculated plates were incubated for 2 days at 36° C. Following incubation, the test plates were visually examined and wells were scored for growth to define the minimum inhibitory concentration. […] Each test substance was evaluated in duplicate. Vehicle-control and an active reference agent (e.g., posaconazole) were used as blank and positive controls, respectively.

Broadly, the MIC is the least concentration at which growth counts as inhibited. Take `O=Cc1ccc(N2CCN(c3ccc(-c4ccc(C(F)(F)[C@](O)(Cn5cnnn5)c5ccc(F)cc5F)nc4)cc3)CC2)cc1` [Example 29, (R)-4-(4-(4-(6-(2-(2,4-difluorophenyl)-1,1-difluoro-2-hydroxy-3-(1H-tetrazol-1-yl)propyl)pyridin-3-yl)phenyl)piperazin-1-yl) benzaldehyde]: the MIC in experiment [1] was more than 8 µg/mL; in experiment [2], 0.01 to 0.1 µg/mL (≈ 0.0162 to 0.162 µM).
For the molecule `N#Cc1ccc2sc(N3CCN(c4ccc(-c5ccc(C(F)(F)[C@](O)(Cn6cnnn6)c6ccc(F)cc6F)nc5)cc4)CC3)nc2c1` [Example 76, (R)-2-(4-(4-(6-(2-(2,4-difluorophenyl)-1,1-difluoro-2-hydroxy-3-(1H-tetrazol-1-yl)propyl)pyridin-3-yl)phenyl)piperazin-1-yl) benzo [d] thiazole-5-carbonitrile], the MIC in experiment [1] is more than 8 µg/mL; in experiment [2] it was 0.0078 to 0.01 µg/mL (≈ 0.0116 to 0.0149 µM).
In the same order, the values of `NC(c1ccc(N2CCN(c3ccc(-c4ccc(C(F)(F)[C@](O)(Cn5cnnn5)c5ccc(F)cc5F)nc4)cc3)CC2)cc1)C(F)(F)F` (stereo partly drawn) [Example 4, (2R)-1-(5-(4-(4-(4-(1-amino-2,2,2-trifluoroethyl)phenyl)piperazin-1-yl)phenyl)pyridin-2-yl)-2-(2,4-difluorophenyl)-1,1-difluoro-3-(1H-tetrazol-1-yl) propan-2-ol] are 0.25 to 1 µg/mL (≈ 0.364 to 1.46 µM) and 0.01 to 0.1 µg/mL (≈ 0.0146 to 0.146 µM).
For the molecule `CC(C)(C)Cn1ncn(-c2ccc(N3CCN(c4ccc(-c5ccc(C(F)(F)[C@](O)(Cn6cnnn6)c6ccc(F)cc6F)nc5)cc4)CC3)cc2)c1=O` [Example 81, (R)-4-(4-(4-(4-(6-(2-(2,4-difluorophenyl)-1,1-difluoro-2-hydroxy-3-(1H-tetrazol-1-yl)propyl)pyridin-3-yl)phenyl)piperazin-1-yl)phenyl)-2-neopentyl-2,4-dihydro-3H-1,2,4-triazol-3-one], the results for the minimum inhibitory concentration (MIC) in experiment [1] and in experiment [2] were 0.25 to 1 µg/mL (≈ 0.337 to 1.35 µM) and 0.0078 to 0.01 µg/mL (≈ 0.0105 to 0.0135 µM), respectively.
Taken in the same sequence, the figures for `OC(c1ccc(N2CCN(c3ccc(-c4ccc(C(F)(F)[C@](O)(Cn5cnnn5)c5ccc(F)cc5F)nc4)cc3)CC2)cc1F)C(F)(F)F` (stereo partly drawn) [Example 5, (2R)-2-(2,4-difluorophenyl)-1,1-difluoro-1-(5-(4-(4-(3-fluoro-4-(2,2,2-trifluoro-1-hydroxyethyl)phenyl)piperazin-1-yl)phenyl)pyridin-2-yl)-3-(1H-tetrazol-1-yl) propan-2-ol] were 0.25 to 1 µg/mL (≈ 0.354 to 1.42 µM) and 0.0078 to 0.01 µg/mL (≈ 0.0111 to 0.0142 µM).
Taken in the same sequence, the figures for `CC(C)C(C)C(O)c1ccc(N2CCN(c3ccc(-c4ccc(C(F)(F)[C@](O)(Cn5cnnn5)c5ccc(F)cc5F)nc4)cc3)CC2)cn1` (stereo partly drawn) [Example 68, 1-(5-(4-(4-(6-((R)-2-(2,4-difluorophenyl)-1,1-difluoro-2-hydroxy-3-(1H-tetrazol-1-yl)propyl)pyridin-3-yl)phenyl)piperazin-1-yl)pyridin-2-yl)-2,3-dimethylbutan-1-ol] were 0.25 to 1 µg/mL (≈ 0.362 to 1.45 µM) and 0.0078 to 0.01 µg/mL (≈ 0.0113 to 0.0145 µM).
In the same order, the values of `OC(c1ccc(N2CCN(c3ccc(-c4ccc(C(F)(F)[C@](O)(Cn5cnnn5)c5ccc(F)cc5F)nc4)cc3)CC2)cn1)C1CC1` (stereo partly shown) [Example 46] are more than 8 µg/mL and 0.0078 to 0.01 µg/mL (≈ 0.0118 to 0.0151 µM).
Take `CCC(C(C)O)n1ccn(-c2ccc(N3CCN(c4ccc(-c5ccc(C(F)(F)[C@](O)(Cn6cnnn6)c6ccc(F)cc6F)nc5)cc4)CC3)cc2)c1=O` (stereo partly drawn) [Example 97, 1-(4-(4-(4-(6-((R)-2-(2,4-difluorophenyl)-1,1-difluoro-2-hydroxy-3-(1H-tetrazol-1-yl)propyl)pyridin-3-yl)phenyl)piperazin-1-yl)phenyl)-3-(2-hydroxypentan-3-yl)-1,3-dihydro-2H-imidazol-2-one]: the results for the MIC in experiment [1] and in experiment [2] were 0.25 to 1 µg/mL (≈ 0.33 to 1.32 µM) and 0.0078 to 0.01 µg/mL (≈ 0.0103 to 0.0132 µM), respectively.
Taken in the same sequence, the figures for `CC(C)(O)c1ccc(N2CCN(c3ccc(-c4ccc(C(F)(F)[C@](O)(Cn5cnnn5)c5ccc(F)cc5F)nc4)cc3)CC2)cc1` [Example 72, (R)-2-(2,4-difluorophenyl)-1,1-difluoro-1-(5-(4-(4-(4-(2-hydroxypropan-2-yl)phenyl)piperazin-1-yl)phenyl)pyridin-2-yl)-3-(1H-tetrazol-1-yl) propan-2-ol] were 0.25 to 1 µg/mL (≈ 0.386 to 1.54 µM) and 0.0078 to 0.01 µg/mL (≈ 0.012 to 0.0154 µM).
Taken in the same sequence, the figures for `CCn1ncn(-c2ccc(N3CCN(c4ccc(-c5ccc(C(F)(F)[C@](O)(Cn6cnnn6)c6ccc(F)cc6F)nc5)cc4)CC3)cc2)c1=O` [Example 54, (R)-4-(4-(4-(4-(6-(2-(2,4-difluorophenyl)-1,1-difluoro-2-hydroxy-3-(1H-tetrazol-1-yl)propyl)pyridin-3-yl)phenyl)piperazin-1-yl)phenyl)-2-ethyl-2,4-dihydro-3H-1,2,4-triazol-3-one] were 0.062 to 0.25 µg/mL (≈ 0.0885 to 0.357 µM) and 0.01 to 0.1 µg/mL (≈ 0.0143 to 0.143 µM).
In the same order, the values of `CCC(O)c1ccc(N2CCN(c3ccc(-c4ccc(C(F)(F)[C@](O)(Cn5cnnn5)c5ccc(F)cc5F)nc4)cc3)CC2)cn1` (stereo partly drawn) [Example 48, 1-(5-(4-(4-(6-((R)-2-(2,4-difluorophenyl)-1,1-difluoro-2-hydroxy-3-(1H-tetrazol-1-yl)propyl)pyridin-3-yl)phenyl)piperazin-1-yl)pyridin-2-yl)propan-1-ol] are 0.25 to 1 µg/mL (≈ 0.385 to 1.54 µM) and 0.01 to 0.1 µg/mL (≈ 0.0154 to 0.154 µM).
`O=c1n(-c2ccc(N3CCN(c4ccc(-c5ccc(C(F)(F)[C@](O)(Cn6cnnn6)c6ccc(F)cc6F)nc5)cc4)CC3)cc2)cnn1CC(F)(F)F` [Example 58, (R)-4-(4-(4-(4-(6-(2-(2,4-difluorophenyl)-1,1-difluoro-2-hydroxy-3-(1H-tetrazol-1-yl)propyl)pyridin-3-yl)phenyl)piperazin-1-yl)phenyl)-2-(2,2,2-trifluoroethyl)-2,4-dihydro-3H-1,2,4-triazol-3-one]: the MIC in experiment [1] was in the range of 0.062 to 0.25 µg/mL (≈ 0.0822 to 0.331 µM); in experiment [2] it was 0.0078 to 0.01 µg/mL (≈ 0.0103 to 0.0133 µM).
With `OC(CC(F)(F)F)c1ccc(N2CCN(c3ccc(-c4ccc(C(F)(F)[C@](O)(Cn5cnnn5)c5ccc(F)cc5F)nc4)cc3)CC2)cn1` (single isomer, unassigned) [Example 13-Fr-I], the “Aspergillus fumigatus MIC” value in experiment [1] fell in the range of 0.062 to 0.25 µg/mL. The “Candida albicans MIC” value in experiment [2] was not above 0.0078 to 0.010 µg/mL.
In the case of `CCC(CC)n1ncn(-c2ccc(N3CCN(c4ccc(-c5ccc(C(F)(F)[C@](O)(Cn6cnnn6)c6ccc(F)cc6F)nc5)cc4)CC3)cc2)c1=O` [Example 66, (R)-4-(4-(4-(4-(6-(2-(2,4-difluorophenyl)-1,1-difluoro-2-hydroxy-3-(1H-tetrazol-1-yl)propyl)pyridin-3-yl)phenyl)piperazin-1-yl)phenyl)-2-(pentan-3-yl)-2,4-dihydro-3H-1,2,4-triazol-3-one], the MIC lay within 0.25 to 1 µg/mL (≈ 0.337 to 1.35 µM) in experiment [1] and 0.0078 to 0.01 µg/mL (≈ 0.0105 to 0.0135 µM) in experiment [2].
In the same order, the values of `N#Cc1ccc(N2CCN(c3ccc(-c4ccc(C(F)(F)[C@](O)(Cn5cnnn5)c5ccc(F)cc5F)nc4)cc3F)CC2)cc1` [Example 10, (R)-4-(4-(4-(6-(2-(2,4-difluorophenyl)-1,1-difluoro-2-hydroxy-3-(1H-tetrazol-1-yl)propyl)pyridin-3-yl)-2-fluorophenyl)piperazin-1-yl) benzonitrile] are more than 8 µg/mL and 0.0078 to 0.01 µg/mL (≈ 0.0123 to 0.0158 µM).
In the case of `OC(c1ccc(N2CCN(c3ccc(-c4ccc(C(F)(F)C(O)(Cn5cnnn5)c5cc(F)ccc5F)nc4)cc3)CC2)cc1)C(F)(F)F` (stereo not drawn) [15(+)], the “Aspergillus fumigatus MIC” value in experiment [1] was 0.25 to 1.0 µg/mL. Also, in experiment [2], the “Candida albicans MIC” value is not above 0.0078 to 0.010 µg/mL.
As for `CCC(c1nc2cc(N3CCN(c4ccc(-c5ccc(C(F)(F)[C@](O)(Cn6cnnn6)c6ccc(F)cc6F)nc5)cc4)CC3)ccc2[nH]1)C(C)O` (stereo partly drawn) [Example 71, 3-(5-(4-(4-(6-((R)-2-(2,4-difluorophenyl)-1,1-difluoro-2-hydroxy-3-(1H-tetrazol-1-yl)propyl)pyridin-3-yl)phenyl)piperazin-1-yl)-1H-benzo [d]imidazol-2-yl)pentan-2-ol], the MIC lay within 0.25 to 1 µg/mL (≈ 0.349 to 1.4 µM) in experiment [1] and 0.0078 to 0.01 µg/mL (≈ 0.0109 to 0.014 µM) in experiment [2].
In the case of `CC(O)C(F)(F)c1ccc(N2CCN(c3ccc(-c4ccc(C(F)(F)[C@](O)(Cn5cnnn5)c5ccc(F)cc5F)nc4)cc3)CC2)cn1` (stereo partly drawn) [Example 99, (2R)-1-(5-(4-(4-(6-(1,1-difluoro-2-hydroxypropyl)pyridin-3-yl)piperazin-1-yl)phenyl)pyridin-2-yl)-2-(2,4-difluorophenyl)-1,1-difluoro-3-(1H-tetrazol-1-yl) propan-2-ol], the MIC in experiment [1] lay in the range of 0.25 to 1 µg/mL (≈ 0.365 to 1.46 µM); in experiment [2], 0.0078 to 0.01 µg/mL (≈ 0.0114 to 0.0146 µM).
In the same order, the values of `CC(O)C(C)n1ncn(-c2ccc(N3CCN(c4ccc(-c5ccc(C(F)(F)[C@](O)(Cn6cnnn6)c6ccc(F)cc6F)nc5)cc4)CC3)cc2)c1=O` (stereo partly drawn) [Example 75, 4-(4-(4-(4-(6-((R)-2-(2,4-difluorophenyl)-1,1-difluoro-2-hydroxy-3-(1H-tetrazol-1-yl)propyl)pyridin-3-yl)phenyl)piperazin-1-yl)phenyl)-2-(3-hydroxybutan-2-yl)-2,4-dihydro-3H-1,2,4-triazol-3-one] are 0.062 to 0.25 µg/mL (≈ 0.0832 to 0.336 µM) and 0.0078 to 0.01 µg/mL (≈ 0.0105 to 0.0134 µM).
Turning to `OC(CC(F)(F)F)c1ccc(N2CCN(c3ccc(-c4ccc(C(F)(F)[C@](O)(Cn5cnnn5)c5ccc(F)cc5)nc4)cc3)CC2)cn1` (single isomer, unassigned; (-)) [121(−)], the “Aspergillus fumigatus MIC” value in experiment [1] was more than 8 µg/mL. Further, the “Candida albicans MIC” value in experiment [2] lay within 0.10 to 1.0 µg/mL.
